Key:
[1] = test system: SkBr3; experiment: IC50 of Her2 kinase inhibitors on Her2-amplified cell lines; type: cell-based; settings: Homo sapiens, SK-BR-3
[2] = test system: SkBr3 cells; experiment: Inhibition of breast cancer cell growth, DAPI nuclei count; type: cell-based; settings: for inhibition at 1 µM: Homo sapiens; for inhibition at 1 µM / DAPI Nuclei Count: SkBr3 cells, IRX4204 1000 nM
From the text: MCF7 is an ER^+ PR^+ Her2^− cell line. SkBr3 is an ER^− PR^− Her2^+ cell line. […] After a further 6 days, the cells were fixed with 4% paraformaldehyde in phosphate buffered saline (PBS). Nuclei were then stained with DAPI and imaged with the MetaXpress® microscope (Molecular Devices, San Jose, CA). Cell nuclei were segmented and then counted by defining pixel intensity over background and object size, using the algorithm of the MetaXpress® image analysis software. […]

[3] = test system: HCC1954 human breast cancer cells; experiment: Inhibition of growth of a Her2-targeted agent resistant Her2+ cell line, DAPI nuclei count; type: cell-based; settings: for resistance of the cell line to the agent used individually: HCC1954, as compared to SkBr3; for growth inhibitory effect (FIGS. 4A-B, 5A-B), in words: HCC1954, 6 days, IRX4204 10, 100 or 1000 nM
Procedure: HCC1954 is Her2^+ cancer cell line derived from a ductal carcinoma of the breast.
HCC1954 human breast cancer cells were seeded at 3000 cells per well in 96-well plates and treated with neratinib [1 or 10 nM] or DMSO (0.1%) in combination with IRX4204 [10, 100, or 1000 nM]. After 6 days of treatment, cells were fixed with 4% paraformaldehyde. Nuclei were stained with DAPI, imaged using ImageXpress® Pico (Molecular Devices) and counted using CellReporterXpress® Analysis Software (FIGS. 4A-B) Each data point represents six replicates. Statistical significance was determined using the Bonferroni-Dunn method of multiple t-tests. Each day was analyzed individually, without assuming a consistent SD (*p<0.01).
The experiment was also conducted using tucatinib or lapatinib in place of neratinib.

[4] = test system: AU565; experiment: IC50 of Her2 kinase inhibitors on Her2-amplified cell lines; type: cell-based; settings: Homo sapiens
[5] = test system: BT474 cells; experiment: Inhibition of breast cancer cell growth, DAPI nuclei count; type: cell-based; settings: IRX4204 1000 nM; for inhibition at 1 µM: Homo sapiens
From the text: (§1) MCF7 is an ER^+ PR^+ Her2^− cell line. SkBr3 is an ER^− PR^− Her2^+ cell line. […] After a further 6 days, the cells were fixed with 4% paraformaldehyde in phosphate buffered saline (PBS). Nuclei were then stained with DAPI and imaged with the MetaXpress® microscope (Molecular Devices, San Jose, CA). Cell nuclei were segmented and then counted by defining pixel intensity over background and object size, using the algorithm of the MetaXpress® image analysis software. Experimental data points were performed at a minimum of quadruplicate, and results were reported as average cell count ±standard deviation (SD).
(§2) To assess if this improved growth inhibition effect was synergistic, the percent inhibition observed for the highest concentrations of the combined therapeutic agents was compared to the percent inhibition that would be expected for the combination based on the observed inhibition of the therapeutic agents used alone, if the agents acting independently, that is, without interaction (see Table 1). That is, PAE=(FE1+((1−FE1)×FE2))×100, where PAE is the predicted additive effect, FE1 is the observed fractional effect of a 1st treatment, and FE2 is the observed fractional effect of a 2nd treatment.
(§3) Additionally the panel of breast cancer cell lines was expanded to also include the ER^+ PR^+ Her2^+ cell line BT474 and the ER^+ PR^− Her2^+ cell line MDA-MB-361.
(§4) To assess if this improved growth inhibition effect was synergistic, the percent inhibition observed for the highest concentrations of the combined therapeutic agents was compared to the percent inhibition that would be expected for the combination based on the observed inhibition of the therapeutic agents used alone, if the agents acting independently, that is, without interaction (see Tables 2-4).

[6] = test system: MDA-MB-361 cells; experiment: as above; type: cell-based; settings: IRX4204 1000 nM; for inhibition at 1 µM: Homo sapiens
From the text: as §1, §2, §3, §4

[7] = test system: HCC1954; experiment: IC50 of Her2 kinase inhibitors on Her2-amplified cell lines; type: cell-based; settings: Homo sapiens
[8] = test system: PPAR/RXR, FXR/RXR, or LXR/RXR; settings: cited from earlier work
[9] = test system: FXR/RXR; experiment: Activation of permissive RXR heterodimers
[10] = test system: RAR/RXR; experiment: Activation of non-permissive RXR heterodimers
[11] = test system: RXR homodimers; experiment: Activation of RXR homodimers
[12] = test system: LXR/RXR; experiment: Activation of permissive RXR heterodimers
[13] = test system: MCF7 cells; experiment: Inhibition of breast cancer cell growth, DAPI nuclei count; type: cell-based; settings: Her2− MCF7 cells; IRX4204 0-1000 nM, trastuzumab 0-10 μg/ml; 6 days
From the text: MCF7 is an ER^+ PR^+ Her2^− cell line. SkBr3 is an ER^− PR^− Her2^+ cell line. […] After a further 6 days, the cells were fixed with 4% paraformaldehyde in phosphate buffered saline (PBS). Nuclei were then stained with DAPI and imaged with the MetaXpress® microscope (Molecular Devices, San Jose, CA). Cell nuclei were segmented and then counted by defining pixel intensity over background and object size, using the algorithm of the MetaXpress® image analysis software.
as §3

[14] = test system: PPAR/RXR; experiment: Activation of permissive RXR heterodimers
[15] = test system: Nurr1/RXR heterodimer; experiment: Activation of permissive RXR heterodimers
[16] = SK-BR-3, neratinib experiment, Neratinib 1000 nM
[17] = neratinib experiment, Neratinib 1000 nM, control 6696
[18] = BT-474, neratinib experiment, Neratinib 1000 nM
[19] = neratinib experiment, Neratinib 1000 nM, control 2192
[20] = MDA-MB-361 cells, neratinib experiment, Neratinib 1000 nM, control 5297
[21] = SK-BR-3, lapatinib experiment, Lapatinib 1000 nM
[22] = lapatinib experiment, Lapatinib 1000 nM, control 19855
[23] = BT-474, lapatinib experiment, Lapatinib 1000 nM
[24] = lapatinib experiment, Lapatinib 1000 nM, control 2937
[25] = MDA-MB-361 cells, lapatinib experiment, Lapatinib 1000 nM, control 6696

Row | IC50 [1] | IC50 [7] | SMILES | inhibition at 1 µM [2, 16] | DAPI Nuclei Count [2, 17] | resistance of the cell line to the agent used individually [3] | IC50 [4] | inhibition at 1 µM [5, 18] | DAPI Nuclei Count [5, 19] | DAPI Nuclei Count [6, 20] | growth inhibitory effect (FIGS. 4A-B, 5A-B), in words [3] | inhibition at 1 µM [2, 21] | DAPI Nuclei Count [2, 22] | inhibition at 1 µM [5, 23] | DAPI Nuclei Count [5, 24] | DAPI Nuclei Count [6, 25] | also measured
1 | 22 nM | > 2000 nM | Cc1cc(Nc2ncnc3ccc(NC4=NC(C)(C)CO4)cc23)ccc1Oc1ccn2ncnc2c1 [Tucatinib] |  |  | resistant |  |  |  |  | some small effect |  |  |  |  |  | 
2 |  |  | Cc1cc2c(cc1C1(c3ccc(C(=O)O)cn3)CC1)C(C)(C)CCC2(C)C [LGD268] |  |  |  |  |  |  |  |  |  |  |  |  |  | activation of one or more of PPAR/RXR, FXR/RXR, or LXR/RXR, in words [8]: activates
3 |  |  | CC(/C=C/[C@@H]1C[C@]1(C)c1ccc2c(c1)C(C)(C)CCC2(C)C)=C\C(=O)O [IRX4204, 3,7-dimethyl-6(S),7(S)-methano,7-[1,1,4,4-tetramethyl-1,2,3,4-tetrahydron-aphth-7-yl]2(E), 4(E) heptadienoic acid] | 22.1% | 5218 | highly resistant |  | 6.8% | 2043 | 2459 | no growth inhibitory effect | 4.8% | 18906 | -15.7% | 3399 | 5218 | activation of heterodimer, in words [9]: does not activate; activation of heterodimer, in words [10]: does not activate; activation of RXR homodimers, in words [11]: specifically activate; activation of heterodimer, in words [12]: does not activate; growth inhibitory effect (FIG. 1B), in words ([2]; Her2+ SkBr3 cells, IRX4204 0-1000 nM, trastuzumab 0-10 μg/ml, 6 days): moderate growth inhibitory effect; inhibition at 1 µM ([2]; SK-BR-3, 144 h, 6 days, Herceptin 1000 ng, alone or combined): 29.4%; DAPI Nuclei Count ([2]; 6 days, Herceptin 1000 ng, alone or combined, control 25958): 18274; growth inhibitory effect (FIG. 1A), in words [13]: neither agent had more than marginal effect; activation of heterodimer, in words [14]: does not activate; activation of heterodimer, in words [15]: specifically activates; inhibition at 1 µM ([6]; MDA-MB-361, MDA-MB-361 cells, lapatinib experiment, Lapatinib 1000 nM): 22.1%; inhibition at 1 µM ([6]; MDA-MB-361, MDA-MB-361 cells, neratinib experiment, Neratinib 1000 nM): 43.6%
4 | 152 nM | > 1400 nM | CS(=O)(=O)CCNCc1ccc(-c2ccc3ncnc(Nc4ccc(OCc5cccc(F)c5)c(Cl)c4)c3c2)o1 [Lapatinib, reference compound] |  |  | resistant | 294 nM |  |  |  | some small effect | 88.9% | 2211 | 58.8% | 1211 | 903 | inhibition at 1 µM ([6]; MDA-MB-361 cells, lapatinib experiment, Lapatinib 1000 nM): 86.5%

Row | SMILES | IC50 [1] | IC50 [7] | inhibition at 1 µM [2, 16] | DAPI Nuclei Count [2, 17] | resistance of the cell line to the agent used individually [3] | IC50 [4] | inhibition at 1 µM [5, 18] | DAPI Nuclei Count [5, 19] | DAPI Nuclei Count [6, 20] | growth inhibitory effect (FIGS. 4A-B, 5A-B), in words [3] | inhibition at 1 µM [2, 21] | DAPI Nuclei Count [2, 22] | inhibition at 1 µM [5, 23] | DAPI Nuclei Count [5, 24] | DAPI Nuclei Count [6, 25] | also measured
5 | CCOc1cc2ncc(C#N)c(Nc3ccc(OCc4ccccn4)c(Cl)c3)c2cc1NC(=O)/C=C/CN(C)C [Neratinib, reference compound] | 7 nM | > 100 nM | 86.5% | 903 | resistant | 20 nM | 91.8% | 180 | 249 |  |  |  |  |  |  | inhibition at 1 µM ([6]; MDA-MB-361 cells, neratinib experiment, Neratinib 1000 nM): 95.3%

Reference: patent US20240293349A1, “USE OF AN RXR AGONIST IN TREATING DRUG RESISTANT HER2+ CANCERS” (Io Therapeutics, Inc., priority 2022, published 2024)
